Activity calls are given as the source filed them. The calls are words filed in the database; no cut-off is given here. Where a SMILES comes first, the peptide text is derived from it. Side-chain parts run from the residue outwards.
Assays:
Staphylococcus aureus [1] = experiment: Antibacterial activity against Staphylococcus aureus ATCC 25923 assessed as inhibition of bacterial growth incubated for 20 hrs in presence of ZnCl2 by broth microdilution method (reference value: 16 microM); assay type: functional
Escherichia coli [2] = experiment: Additive antibacterial activity against Escherichia coli ATCC 25922 assessed as fractional inhibitory concentration index at 0.25 to 4 times MIC incubated for 20 hrs in presence of kanamycin by checkerboard assay; assay type: functional
Escherichia coli [3] = experiment: Bactericidal activity against Escherichia coli ATCC 25922 assessed as elimination of bacteria at 2 times MIC measured within 2 hrs by time kill assay; assay type: functional, organism-based
[4] = Systemic toxicity in male BALB/c mouse assessed as hepatocyte hemorrhage at 109.31 mg/kg, ip administered as single dose by H and E staining based analysis; assay type: organism-based; details: hepatocytes
Staphylococcus aureus [5] = experiment: Synergistic antibacterial activity against Staphylococcus aureus ATCC 25923 assessed as fractional inhibitory concentration index at 0.25 to 4 times MIC incubated for 20 hrs in presence of rifampicin by checkerboard assay; assay type: functional
Staphylococcus aureus [6] = experiment: Additive antibacterial activity against rifampicin resistant Staphylococcus aureus ATCC 25923 assessed as fractional inhibitory concentration index at 0.25 to 4 times MIC incubated for 20 hrs in presence of rifampicin by checkerboard assay; assay type: functional
Staphylococcus aureus [7] = experiment: Antibacterial activity against Staphylococcus aureus ATCC 25923 assessed as inhibition of bacterial growth upto 20 ug/ml pretreated with chymotrypsin for 6 hrs and measured after 18 hrs by absorbance based method; assay type: functional, organism-based; details: dose <= 20.0 µg/ml, time 24.0 hrs
Escherichia coli [8] = experiment: Additive antibacterial activity against rifampicin resistant Escherichia coli ATCC 25922 assessed as fractional inhibitory concentration index at 0.25 to 4 times MIC incubated for 20 hrs in presence of rifampicin by checkerboard assay; assay type: functional
Staphylococcus aureus [9] = experiment: Antibacterial activity against Staphylococcus aureus ATCC 25923 assessed as inhibition of bacterial growth upto 200 ug/ml pretreated with trypsin for 6 hrs and measured after 18 hrs by absorbance based method; assay type: functional, organism-based; details: dose <= 200.0 µg/ml, time 24.0 hrs
Escherichia coli [10] = experiment: Antibacterial activity against Escherichia coli ATCC 25922 assessed as inhibition of bacterial growth incubated for 20 hrs in presence of KCl by broth microdilution method (reference value: 16 microM); assay type: functional
Staphylococcus aureus [11] = experiment: Antibacterial activity against Staphylococcus aureus ATCC 25923 assessed as inhibition of bacterial growth incubated for 20 hrs in presence of KCl by broth microdilution method (reference value: 16 microM); assay type: functional
Escherichia coli [12] = experiment: Antibacterial activity against Escherichia coli ATCC 25922 assessed as inhibition of bacterial growth incubated for 20 hrs in presence of NaCl by broth microdilution method (reference value: 16 microM); assay type: functional
[13] = Acute toxicity in ip dosed male BALB/c mouse administered as single dose; assay type: organism-based; details: male, BALB/c, in vivo, read-out: LD50
Staphylococcus aureus [14] = experiment: Antibacterial activity against Staphylococcus aureus ATCC 25923 assessed as inhibition of bacterial growth incubated for 20 hrs in presence of FeCl3 by broth microdilution method (reference value: 8 microM); assay type: functional
Escherichia coli [15] = experiment: Antibacterial activity against Escherichia coli ATCC 25922 assessed as inhibition of bacterial growth incubated for 20 hrs in presence of ZnCl2 by broth microdilution method (reference value: 8 microM); assay type: functional
[16] = Systemic toxicity in male BALB/c mouse assessed as lung inflammatory cell infiltration at 105.41 mg/kg, ip administered as single dose by H and E staining based analysis; assay type: organism-based; details: in vivo
Staphylococcus aureus [17] = experiment: Synergistic antibacterial activity against gentamicin resistant Staphylococcus aureus ATCC 25923 assessed as fractional inhibitory concentration index at 0.25 to 4 times MIC incubated for 20 hrs in presence of gentamicin by checkerboard assay; assay type: functional
Staphylococcus aureus [18] = experiment: Antibacterial activity against Staphylococcus aureus ATCC 25923 assessed as inhibition of bacterial growth incubated for 20 hrs in presence of KCl by broth microdilution method (reference value: 8 microM); assay type: functional
Staphylococcus aureus [19] = experiment: Antibacterial activity against Staphylococcus aureus ATCC 25923 assessed as inhibition of bacterial growth incubated for 20 hrs in presence of NaCl by broth microdilution method (reference value: 8 microM); assay type: functional
Escherichia coli [20] = experiment: Antibacterial activity against Escherichia coli ATCC 25922 assessed as inhibition of bacterial growth incubated for 20 hrs in presence of MgCl2 by broth microdilution method (reference value: 8 microM); assay type: functional
Escherichia coli [21] = experiment: Antibacterial activity against Escherichia coli ATCC 25922 assessed as inhibition of bacterial growth incubated for 20 hrs in presence of KCl by broth microdilution method (reference value: 8 microM); assay type: functional
Escherichia coli [22] = experiment: Antibacterial activity against Escherichia coli ATCC 25922 assessed as inhibition of bacterial growth incubated for 20 hrs in presence of NaCl by broth microdilution method (reference value: 8 microM); assay type: functional
Cell membrane [23] = experiment: Induction of cytoplasmic membrane depolarization in Staphylococcus aureus assessed as increase in fluorescence intensity at 0.5 to 4 times MIC measured upto 13 mins by DISC3-5 dye based fluorescence analysis
Escherichia coli [24] = experiment: Synergistic antibacterial activity against Escherichia coli ATCC 25922 assessed as fractional inhibitory concentration index at 0.25 to 4 times MIC incubated for 20 hrs in presence of rifampicin by checkerboard assay; assay type: functional, organism-based
Escherichia coli [25] = experiment: Bactericidal activity against Escherichia coli ATCC 25922 assessed as elimination of bacteria at 2 times MIC measured after 1 hrs by time kill assay; assay type: functional, organism-based
Escherichia coli [26] = experiment: Synergistic antibacterial activity against Escherichia coli ATCC 25922 assessed as fractional inhibitory concentration index at 0.25 to 4 times MIC incubated for 20 hrs in presence of vancomycin by checkerboard assay; assay type: functional, organism-based
Escherichia coli [27] = experiment: Antibacterial activity against Escherichia coli ATCC 25922 assessed as inhibition of bacterial growth incubated for 20 hrs in presence of FeCl3 by broth microdilution method (reference value: 4 microM); assay type: functional, organism-based
Cell membrane [28] = experiment: Induction of cell membrane damage in Staphylococcus aureus assessed as PI uptake at 2 times MIC measured after 2 hrs by PI dye based flow cytometry analysis (reference value: 28.8%); assay type: cell membranes
Escherichia coli [29] = experiment: […] activity against Escherichia coli ATCC 25922 infected in male BALB/c pulmonary infection model assessed as reduction in lung inflammation at 10 mg/kg, ip administered at 3 and 12 hrs post infection and measured 24 hrs post infection by H and E staining based analysis; assay type: functional, organism-based; details: time 12-21 hrs
Escherichia coli [30] = experiment: […] activity against Escherichia coli ATCC 25922 infected in male BALB/c pulmonary infection model assessed as reduction in inflammatory cell infiltration at 10 mg/kg, ip administered at 3 and 12 hrs post infection and measured 24 hrs post infection by H and E staining based analysis; assay type: functional, organism-based; details: time 12-21 hrs
Staphylococcus aureus [31] = experiment: Additive antibacterial activity against Staphylococcus aureus ATCC 25923 assessed as fractional inhibitory concentration index at 0.25 to 4 times MIC incubated for 20 hrs in presence of rifampicin by checkerboard assay; assay type: functional, organism-based
Escherichia coli [32] = experiment: Antibacterial activity against Escherichia coli ATCC 25922 assessed as inhibition of bacterial growth incubated for 20 hrs in presence of MgCl2 by broth microdilution method (reference value: 4 microM); assay type: functional, organism-based
Escherichia coli [33] = experiment: Antibacterial activity against Escherichia coli ATCC 25922 assessed as inhibition of bacterial growth incubated for 20 hrs in presence of NaCl by broth microdilution method (reference value: 4 microM); assay type: functional, organism-based

Molecule: N=C(N)NCCC[C@H](NC(=O)[C@@H](N)CCCNC(=N)N)C(=O)NCCCC[C@H](NC(=O)[C@H](CCCNC(=N)N)NC(=O)[C@@H](N)CCCNC(=N)N)C(=O)N[C@@H](Cc1c[nH]c2ccccc12)C(=O)N[C@@H](Cc1c[nH]c2ccccc12)C(=O)N[C@@H](Cc1c[nH]c2ccccc12)C(=O)N[C@@H](Cc1c[nH]c2ccccc12)C(N)=O (H-RRK([Arg-Arg])WWWW-NH2)
- MIC (Staphylococcus aureus [1]): 16 µM
- fractional inhibitory concentration index (FICI) (Escherichia coli [2]): 0.563
- Activity (Escherichia coli [3]): Active
- Activity [4]: Non-Toxic
- fractional inhibitory concentration index (FICI) (Staphylococcus aureus [5]): 0.375
- fractional inhibitory concentration index (FICI) (Staphylococcus aureus [6]): 0.563
- Activity (Staphylococcus aureus [7]): Active
- fractional inhibitory concentration index (FICI) (Escherichia coli [8]): 0.563
- Activity (Staphylococcus aureus [9]): Active
- MIC (Escherichia coli [10]): 16 µM
- MIC (Staphylococcus aureus [11]): 8 µM
- MIC (Escherichia coli [12]): 32 µM
- LD50 [13]: 109 mg/kg

Molecule: N=C(N)NCCC[C@H](NC(=O)[C@H](CCCNC(=N)N)NC(=O)[C@H](CCCNC(=N)N)NC(=O)[C@@H](N)CCCNC(=N)N)C(=O)N[C@@H](CCCCN)C(=O)N[C@@H](Cc1c[nH]c2ccccc12)C(=O)N[C@@H](Cc1c[nH]c2ccccc12)C(=O)N[C@@H](Cc1c[nH]c2ccccc12)C(=O)N[C@@H](Cc1c[nH]c2ccccc12)C(N)=O
- Activity (Escherichia coli [3]): Active
- MIC (Staphylococcus aureus [14]): 8 µM
- MIC (Escherichia coli [15]): 8 µM
- fractional inhibitory concentration index (FICI) (Staphylococcus aureus [5]): 0.375
- Activity [16]: Non-Toxic
- fractional inhibitory concentration index (FICI) (Staphylococcus aureus [17]): 0.5
- MIC (Staphylococcus aureus [18]): 8 µM
- MIC (Staphylococcus aureus [19]): 8 µM
- MIC (Escherichia coli [20]): 16 µM
- MIC (Escherichia coli [21]): 16 µM
- MIC (Escherichia coli [22]): 16 µM
- LD50 [13]: 105 mg/kg

Molecule: POLYMYXIN B
- MIC (Staphylococcus aureus [1]): 16 µM
- Activity (Cell membrane [23]): inactive
- fractional inhibitory concentration index (FICI) (Escherichia coli [24]): 0.313
- Activity (Escherichia coli [25]): 100%
- fractional inhibitory concentration index (FICI) (Escherichia coli [26]): 0.313
- MIC (Escherichia coli [27]): 4 µM
- Activity (Cell membrane [28]): 76.2%
- Activity (Escherichia coli [29]): inactive
- Activity (Escherichia coli [30]): inactive
- fractional inhibitory concentration index (FICI) (Staphylococcus aureus [31]): 0.563
- MIC (Escherichia coli [32]): 2 µM
- MIC (Staphylococcus aureus [11]): 16 µM
- MIC (Escherichia coli [33]): 4 µM

Reference: ChEMBL document CHEMBL5500371, “Arginine and tryptophan-rich dendritic antimicrobial peptides that disrupt membranes for bacterial infection in vivo” (Eur J Med Chem, 2024)
